Results: patent US12486246B2, “Replication protein A (RPA)-DNA interaction inhibitors” (THE TRUSTEES OF INDIANA UNIVERSITY, priority 2019, dated 2025)

What was measured:
[1] = biological target: T1, full length heterotrimeric human RPA (Homo sapiens, UniProt P27694); assay: Electrophoretic mobility shift assay (EMSA), binding of full length human RPA to ssDNA; details: for IC50: full length human RPA binding to DNA, mean ± SD of minimum triplicate experiments
T1 construct: Full length, heterotrimeric human RPA (fl-RPA) and DBD-A/B constructs were expressed and purified; made in house
Method: Full length, heterotrimeric human RPA (fl-RPA) and DBD-A/B constructs were expressed and purified according to previously described protocol. The DBD-A/B construct was expressed as a His6-RPA181-422 fusion protein. E. coli BL21 (DE3) cells in log growth were induced for 3 h with 0.5 mM IPTG at 37° C. The cells were lysed via sonication in buffer containing 20 mM Tris pH 7.5, 500 mM NaCl, 10 mM b-mercaptoethanol, supplemented with 25 μg/mL lysozyme, 1 μg/mL leupeptin, 1 μg/mL pepstatin and 0.5 mM PMSF. The lysate was applied to a 20 mL phosphocellulose column equilibrated in the same buffer and the flow-through material collected, brought to 5 mM Imidazole and loaded onto a 2 ml Ni-NTA column. The column was washed and proteins eluted on with a gradient from 50 mM to 500 mM imidazole. Fractions were assessed by EMSA and SDS-PAGE and DBD-A/B containing fraction were pool, dialyzed against buffer containing 50 mM HEPES pH 7.0, 500 mM NaCl and 1 mM DTT and stored at −80° C.
EMSAs were carried out using previously described procedure with the following modification. EMSA reactions (20 μL) were performed with 50 nM fl-RPA and 2.5 nM 5′ [^32P]-labeled 34-base DNA in buffer containing 20 mM HEPES (pH 7.8), 1 mM DTT, 0.001% NP-40, 50 mM NaCl. Chemical compounds were suspended in DMSO and DMSO concentration in the reaction mixture was kept constant at 2% or below 5%. RPA was incubated with inhibitor or DMSO control in reaction buffer for 30 min before the addition of DNA. Reactions were incubated for 5 min at room temperature and products separated via 6% native polyacrylamide gel electrophoresis. The bound and unbound fractions were then quantified by phosphor-imager analysis using ImageQuant software (Molecular Dynamics, CA) and IC50 values calculated by non-linear regression using SigmPlot (Sysat). For EMSA reactions with RPA DBD-A/B, 150 nM DBD-A/B was used, and electrophoresis was performed at 4° C. All other conditions were identical to those described for the full-length RPA.
Purified full length heterotrimeric human RPA protein was used to screen a series of analogs in an electrophoretic mobility shift assay (EMSA) measuring direct binding to a ss-DNA substrate. Quantification of the EMSA data and additional concentration dependent analysis to measure IC50 values of newly synthesized analogs provided potential insight into the structure-activity relationships (Table 1 and 2). […] Fluorine and trifluoromethyl substituents were included in pyridinyl compounds 28-29.

[2] = test system: sonicated salmon sperm DNA; assay: Fluorescent intercalator displacement (FID) assay, SYBR-Green; format: binding; details: 25 mM MOPS pH 6.5
Method: The analysis of compound interactions with DNA was determined by inhibition of SYBR-Green intercalation into DNA as we have previously described. Briefly, reactions were performed in 25 mM MOPS (pH 6.5) containing sonicated salmon sperm DNA (8.29 ng/μL), SYBR-Green, and the indicated concentrations of RPA inhibitors. Reactions were conducted in black 96-well plates. Doxorubicin, a known noncovalent DNA binding chemotherapeutic, was used as a positive control. Fluorescence was measured using a BioTek® Synergy™ H1 hybrid multi-mode microplate reader with an excitation wavelength of 485 nm, emission wavelength of 528 nm, and a read height of 7 mm. Data were collected using BioTek® Gen5™ reader software. Reactions were incubated a maximum of 5 min before measurements were collected.
In order to probe the potential role of DNA intercalation as a mechanism for RPA inhibition, compounds 19, 23, 26, 27, 43 and 45 were analyzed using FID assay along with doxorubicin (Dox) as a positive control. […] In addition, direct binding of 9 derivatives to the target protein was assessed using a differential scan fluorimetry (DSF) assay. This assay assesses the melting profile of a protein at increasing temperatures via fluorescent dye binding. The direct interaction of a small molecule to the target protein can either increase or decrease the melting temperature (Tm) of the target depending on the specific protein and their interactions. […] Heparin sulfate, a known RPA interacting molecule often used in the purification of the protein was used as a control. […] (data not shown). […] (FIG. 1B).

[3] = Aqueous solubility in unbuffered water; format: physicochemical; details: 43, 44, 45, 46, 47 vs 9, 16, 26, 28, 29 respectively
Method: Aqueous solubility was determined by suspending compound in un-buffered water with stirring. Insoluble material was removed by sedimentation or filtration and soluble compound quantified by absorbance spectroscopy and LC/MS. pH dependence was determined by suspending compound in 10 mM citrate buffer at pH 4.0 or 10 mM phosphate […] as described above in the description.
The morpholine ring is commonly introduced into solvent exposed regions as a privileged solubilizing group to improve solubility or pharmacokinetic properties including metabolic stability of a prospective drug scaffold which is exemplified by many FDA approved drugs. Modifications on Ring A had less of an effect than the morpholino modifications at the alkyl carboxylic acid side chain. To determine the effect of pH on solubility, we prepared solution at 1 mM in citrate buffer at pH 4, phosphate buffer at pH 7 and carbonate buffer at pH 9.5.

T1 sequence (P27694 whole entry): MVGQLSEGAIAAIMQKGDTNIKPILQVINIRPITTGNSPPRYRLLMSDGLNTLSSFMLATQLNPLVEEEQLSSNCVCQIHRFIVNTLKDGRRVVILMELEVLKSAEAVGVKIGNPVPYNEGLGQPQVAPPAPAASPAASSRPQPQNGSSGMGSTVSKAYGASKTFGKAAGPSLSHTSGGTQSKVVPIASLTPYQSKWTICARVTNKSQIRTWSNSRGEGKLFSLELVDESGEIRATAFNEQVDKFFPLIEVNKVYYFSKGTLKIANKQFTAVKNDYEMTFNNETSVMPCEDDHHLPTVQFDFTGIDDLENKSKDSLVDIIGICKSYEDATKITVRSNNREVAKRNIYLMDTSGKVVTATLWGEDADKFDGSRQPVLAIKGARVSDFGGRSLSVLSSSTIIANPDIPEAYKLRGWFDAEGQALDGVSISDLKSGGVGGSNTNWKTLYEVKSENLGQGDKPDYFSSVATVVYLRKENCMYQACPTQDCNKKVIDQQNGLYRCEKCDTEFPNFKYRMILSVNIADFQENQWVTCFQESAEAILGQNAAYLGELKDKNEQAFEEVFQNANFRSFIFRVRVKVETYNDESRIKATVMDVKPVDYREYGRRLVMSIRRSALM
T1 sequence (P15927 whole entry partner): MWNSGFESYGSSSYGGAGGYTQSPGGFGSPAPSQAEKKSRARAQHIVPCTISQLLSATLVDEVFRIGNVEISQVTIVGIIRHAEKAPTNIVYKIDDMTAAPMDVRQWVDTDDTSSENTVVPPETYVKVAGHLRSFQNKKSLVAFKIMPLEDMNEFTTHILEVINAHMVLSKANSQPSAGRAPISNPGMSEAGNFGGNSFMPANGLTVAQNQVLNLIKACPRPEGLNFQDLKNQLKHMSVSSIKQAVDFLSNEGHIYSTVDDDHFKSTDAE
T1 sequence (P35244 whole entry partner): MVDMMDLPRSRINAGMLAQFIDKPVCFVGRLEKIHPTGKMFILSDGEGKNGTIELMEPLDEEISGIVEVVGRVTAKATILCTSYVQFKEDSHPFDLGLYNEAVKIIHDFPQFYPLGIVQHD

| IC50 [1] | SMILES | also measured |
| --- | --- | --- |
| 19.2 ± 4.17 µM | CCOc1ccc2cc(C3CC(c4ccc(Br)cc4)=NN3C(=O)CCCC(=O)O)c(Cl)nc2c1 (stereo not shown) [Compound 16, 5-(3-(4-Bromophenyl)-5-(2-chloro-7-ethoxyquinolin-3-yl)-4,5-dihydro-1H-pyrazol-1-yl)-5-oxopentanoic acid] |  |
| > 25 µM | CCOc1ccc2cc(C3CC(c4ccc(O)cc4)=NN3C(=O)CCCC(=O)O)c(Cl)nc2c1 (stereo not shown) [Compound 17, 5-(5-(2-Chloro-7-ethoxyquinolin-3-yl)-3-(4-hydroxyphenyl)-4,5-dihydro-1H-pyrazol-1-yl)-5-oxopentanoic acid] |  |
| > 25 µM | CCOc1ccc2cc(C3CC(c4ccc([N+](=O)[O-])cc4)=NN3C(=O)CCCC(=O)O)c(Cl)nc2c1 (stereo not shown) [Compound 18, 5-(5-(2-Chloro-7-ethoxyquinolin-3-yl)-3-(4-nitrophenyl)-4,5-dihydro-1H-pyrazol-1-yl)-5-oxopentanoic acid] |  |
| 2.34 ± 0.22 µM | CCOc1ccc2cc(C3CC(c4ccc(N)cc4)=NN3C(=O)CCCC(=O)O)c(Cl)nc2c1 (stereo not shown) [Compound 19, 5-(3-(4-Aminophenyl)-5-(2-chloro-7-ethoxyquinolin-3-yl)-4,5-dihydro-1H-pyrazol-1-yl)-5-oxopentanoic acid] | DNA binding activity (displacement of SYBR-Green intercalator) [2]: No significant DNA binding activity |
| 6.86 ± 0.23 µM | CCOc1ccc2cc(C3CC(c4ccc(I)cc4)=NN3C(=O)CCCCC(=O)O)c(Cl)nc2c1 (stereo not shown) [Compound 37, 6-(5-(2-Chloro-7-ethoxyquinolin-3-yl)-3-(4-iodophenyl)-4,5-dihydro-1H-pyrazol-1-yl)-6-oxohexanoic acid] |  |
| 9.93 ± 1.23 µM | CCOc1ccc2cc(C3CC(c4ccc(I)cc4)=NN3C(=O)CCCCCC(=O)O)c(Cl)nc2c1 (stereo not shown) [Compound 38, 7-(5-(2-Chloro-7-ethoxyquinolin-3-yl)-3-(4-iodophenyl)-4,5-dihydro-1H-pyrazol-1-yl)-7-oxoheptanoic acid] |  |

The remaining lines, values behind:

| SMILES | IC50 [1] | also measured |
| --- | --- | --- |
| C=CC(=O)Oc1ccc(C2=NN(C(=O)CCCC(=O)O)C(c3cc4ccc(OCC)cc4nc3Cl)C2)cc1 (stereo not shown) [Compound 20, 5-(3-(4-(Acryloyloxy)phenyl)-5-(2-chloro-7-ethoxyquinolin-3-yl)-4,5-dihydro-1H-pyrazol-1-yl)-5-oxopentanoic acid] | 8.98 ± 0.98 µM | fold increase in potency/activity compared to compound 9 ([1]; full length RPA): 2 fold |
| CCOc1ccc2cc(C3CC(c4ccc(OC(=O)N5CCOCC5)cc4)=NN3C(=O)CCCC(=O)O)c(Cl)nc2c1 (stereo not shown) [Compound 21, 5-(5-(2-Chloro-7-ethoxyquinolin-3-yl)-3-(4-((morpholine-4-carbonyl)oxy)phenyl)-4,5-dihydro-1H-pyrazol-1-yl)-5-oxopentanoic acid] | > 25 µM | RPA inhibitory activity compared to compound 9 (in words) ([1]; full length RPA): decreased RPA inhibition |
| CCOc1ccc2cc(C3CC(c4ccc(-c5ccoc5)cc4)=NN3C(=O)CCCC(=O)O)c(Cl)nc2c1 (stereo not shown) [Compound 22, 5-(5-(2-chloro-7-ethoxyquinolin-3-yl)-3-(4-(furan-3-yl)phenyl)-4,5-dihydro-1H-pyrazol-1-yl)-5-oxopentanoic acid] | 6.77 ± 0.64 µM |  |
| CCOc1ccc2cc(C3CC(c4ccc(-c5ccc(F)nc5)cc4)=NN3C(=O)CCCC(=O)O)c(Cl)nc2c1 (stereo not shown) [Compound 28, 5-(5-(2-Chloro-7-ethoxyquinolin-3-yl)-3-(4-(6-fluoropyridin-3-yl)phenyl)-4,5-dihydro-1H-pyrazol-1-yl)-5-oxopentanoic acid] | 2.66 ± 0.6 µM |  |
| CCOc1ccc2cc(C3CC(c4ccc(-c5ccc(C(F)(F)F)nc5)cc4)=NN3C(=O)CCCC(=O)O)c(Cl)nc2c1 (stereo not shown) [Compound 29, 5-(5-(2-Chloro-7-ethoxyquinolin-3-yl)-3-(4-(6-(trifluoromethyl)pyridin-3-yl)phenyl)-4,5-dihydro-1H-pyrazol-1-yl)-5-oxopentanoic acid] | 4.35 ± 0.42 µM |  |
| CCOC(=O)CCCC(=O)N1N=C(c2ccc(I)cc2)CC1c1cc2ccc(OCC)cc2nc1Cl (stereo not shown) [Compound 30, ethyl 5-(5-(2-chloro-7-ethoxyquinolin-3-yl)-3-(4-iodophenyl)-4,5-dihydro-1H-pyrazol-1-yl)-5-oxopentanoate] | > 25 µM | RPA inhibitory activity compared to compound 9 (in words) ([1]; full length RPA): decreased RPA inhibitory activity |
| CCOc1ccc2cc(C3CC(c4ccc(I)cc4)=NN3c3cccc(C(=O)O)c3)c(Cl)nc2c1 (stereo not shown) [Compound 39, 3-(5-(2-Chloro-7-ethoxyquinolin-3-yl)-3-(4-iodophenyl)-4,5-dihydro-1H-pyrazol-1-yl)benzoic acid] | > 25 µM |  |
| CCOc1ccc2cc(C3CC(c4ccc(I)cc4)=NN3c3ccc(C(=O)O)cc3)c(Cl)nc2c1 (stereo not shown) [Compound 40, 4-(5-(2-Chloro-7-ethoxyquinolin-3-yl)-3-(4-iodophenyl)-4,5-dihydro-1H-pyrazol-1-yl)benzoic acid] | > 25 µM |  |
| CCOc1ccc2cc(C3CC(c4ccc(I)cc4)=NN3C(=O)CCCC(=O)N3CCOCC3)c(Cl)nc2c1 (stereo not shown) [Compound 41, 1-(5-(2-Chloro-7-ethoxyquinolin-3-yl)-3-(4-iodophenyl)-4,5-dihydro-1H-pyrazol-1-yl)-5-morpholinopentane-1,5-dione] | 6.63 ± 0.48 µM |  |
| CCOc1ccc2cc(C3CC(c4ccc(I)cc4)=NN3C(=O)CCCC(=O)NCCN3CCOCC3)c(Cl)nc2c1 (stereo not shown) [Compound 42, 5-(5-(2-Chloro-7-ethoxyquinolin-3-yl)-3-(4-iodophenyl)-4,5-dihydro-1H-pyrazol-1-yl)-N-(2-morpholinoethyl)-5-oxopentanamide] | 10.5 ± 0.68 µM |  |
| CCOc1ccc2cc(C3CC(c4ccc(Br)cc4)=NN3C(=O)CCCC(=O)NCCCN3CCOCC3)c(Cl)nc2c1 (stereo not shown) [Compound 44, 5-(3-(4-Bromophenyl)-5-(2-chloro-7-ethoxyquinolin-3-yl)-4,5-dihydro-1H-pyrazol-1-yl)-N-(3-morpholinopropyl)-5-oxopentanamide] | 10 ± 1.46 µM | aqueous solubility compared to carboxylic acid counterpart (in words) [3]: increased solubility |
| CCOc1ccc2cc(C3CC(c4ccc(-c5ccc(F)nc5)cc4)=NN3C(=O)CCCC(=O)NCCCN3CCOCC3)c(Cl)nc2c1 (stereo not shown) [Compound 46, 5-(5-(2-Chloro-7-ethoxyquinolin-3-yl)-3-(4-(6-fluoropyridin-3-yl)phenyl)-4,5-dihydro-1H-pyrazol-1-yl)-N-(3-morpholinopropyl)-5-oxopentanamide] | 2.29 ± 0.31 µM | aqueous solubility compared to carboxylic acid counterpart (in words) [3]: increased solubility |
| COc1cccc2c1C(=O)c1c(O)c3c(c(O)c1C2=O)C[C@@](O)(C(=O)CO)C[C@@H]3O[C@H]1C[C@H](N)[C@H](O)[C@H](C)O1 [doxorubicin, reference compound] |  | DNA binding activity (displacement of SYBR-Green intercalator) [2]: concentration dependent reduction in fluorescence |
